Test [1] has as its target T1, human GIP receptor (GIP R) (Homo sapiens, UniProt P48546).
T1 sequence (P48546 22-466): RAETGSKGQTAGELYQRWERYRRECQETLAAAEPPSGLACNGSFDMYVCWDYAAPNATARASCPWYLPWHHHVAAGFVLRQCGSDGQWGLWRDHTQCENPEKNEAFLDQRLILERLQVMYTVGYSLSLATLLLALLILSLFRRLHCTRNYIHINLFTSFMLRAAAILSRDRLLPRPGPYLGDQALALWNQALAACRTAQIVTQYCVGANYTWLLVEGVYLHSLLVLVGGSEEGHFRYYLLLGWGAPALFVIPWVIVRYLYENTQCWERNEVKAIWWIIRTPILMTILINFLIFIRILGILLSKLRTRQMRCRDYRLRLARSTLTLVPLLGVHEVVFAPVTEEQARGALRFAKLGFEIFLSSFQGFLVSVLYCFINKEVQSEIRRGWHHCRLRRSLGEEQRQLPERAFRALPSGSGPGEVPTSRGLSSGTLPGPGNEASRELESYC
Kind of test: Activity assay at human GIP receptor, cAMP induction (AlphaScreen), Example 3. On the technique in general: Alpha assays give light when donor and acceptor beads are brought close together.

Another test deals with T2, human GIP R (Homo sapiens, UniProt P48546).
T2 sequence (P48546 22-466): T1 sequence (P48546 22-466)
Kind of test: cell-based.

In test [2] the target is human GLP-1 receptor (GLP-1R) (Homo sapiens, UniProt P43220). Kind of test: Activity assay at human GLP-1 receptor, cAMP induction (AlphaScreen), Example 3.
Sequence of human GLP-1 receptor (GLP-1R) (P43220 24-463): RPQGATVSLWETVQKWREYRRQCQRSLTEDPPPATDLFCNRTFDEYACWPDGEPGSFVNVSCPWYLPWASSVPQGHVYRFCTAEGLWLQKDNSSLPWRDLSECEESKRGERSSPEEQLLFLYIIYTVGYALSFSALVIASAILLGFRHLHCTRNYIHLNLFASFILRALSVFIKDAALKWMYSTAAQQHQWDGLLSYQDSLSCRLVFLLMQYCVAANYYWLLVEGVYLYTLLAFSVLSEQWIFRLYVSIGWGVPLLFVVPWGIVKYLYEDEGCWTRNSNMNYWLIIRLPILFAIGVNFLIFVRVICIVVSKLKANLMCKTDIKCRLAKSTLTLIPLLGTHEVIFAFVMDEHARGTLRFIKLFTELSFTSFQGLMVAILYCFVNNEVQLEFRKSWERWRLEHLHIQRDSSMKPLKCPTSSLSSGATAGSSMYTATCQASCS

Our source for the EC50 values is patent US12703729B2, “GIP agonist compounds and methods” (Zealand Pharma A/S, priority 2014, dated 2026).

Starred links: 1 amine or outer side, 2 acyl side, 3 side chain; linkers in the order of their positions; H or OH if unused. Non-standard residues stand in square brackets, D forms with d. Residues, ends and D or L forms follow the SMILES beside them. Groups on a side chain read outwards from the residue. *: point of attachment. C20 diacid = O=C(O)CCCCCCCCCCCCCCCCCCC(=O)*; γGlu = O=C(O)[C@H](CCC(=O)[*:2])N[*:1]; AEEA = NCCOCCOCC(=O)O; Aib = CC(C)(N)C(=O)O Bounds are passed on as bounds.

As usually defined, the EC50 is the concentration at which the effect is half-maximal. High values mean a need for much substance, low ones an effect from little substance. With `CC[C@H](C)[C@H](NC(=O)[C@H](CCCCN)NC(=O)[C@H](CC(=O)O)NC(=O)[C@H](CC(C)C)NC(=O)[C@H](CCC(=O)O)NC(=O)[C@@H](NC(=O)[C@H](CO)NC(=O)[C@H](Cc1ccc(O)cc1)NC(=O)[C@H](CC(=O)O)NC(=O)[C@H](CO)NC(=O)[C@@H](NC(=O)[C@H](Cc1ccccc1)NC(=O)[C@@H](NC(=O)CNC(=O)[C@H](CCC(=O)O)NC(=O)C(C)(C)NC(=O)[C@@H](N)Cc1ccc(O)cc1)[C@@H](C)O)[C@@H](C)CC)[C@@H](C)CC)C(=O)N[C@@H](C)C(=O)N[C@@H](CCC(N)=O)C(=O)N[C@@H](CCCNC(=N)N)C(=O)N[C@@H](C)C(=O)N[C@@H](Cc1ccccc1)C(=O)N[C@H](C(=O)N[C@@H](CCC(=O)O)C(=O)N[C@@H](Cc1c[nH]c2ccccc12)C(=O)N[C@@H](CC(C)C)C(=O)N[C@@H](CC(C)C)C(=O)N[C@@H](C)C(=O)N[C@@H](CCC(N)=O)C(=O)NCC(=O)N1CCC[C@H]1C(=O)N[C@@H](CO)C(=O)N[C@@H](CO)C(=O)NCC(=O)N[C@@H](C)C(=O)N1CCC[C@H]1C(=O)N1CCC[C@H]1C(=O)N1CCC[C@H]1C(=O)N[C@@H](CO)C(=O)N[C@@H](CCCCNC(=O)COCCOCCNC(=O)COCCOCCNC(=O)CC[C@H](NC(=O)CCCCCCCCCCCCCCCCCCC(=O)O)C(=O)O)C(N)=O)[C@@H](C)CC` [Compound 28] (H-Y[Aib]EGTFISDYSIELDKIAQRAFIEWLLAQGPSSGAPPPSK([AEEA-AEEA-γGlu-C20 diacid])-NH2), the EC50 is 0.013 nM in test [1], 0.007 nM at human GIP R and more than 3 nM in test [2].

Consider `CC[C@H](C)[C@H](NC(=O)[C@H](CO)NC(=O)[C@H](Cc1ccc(O)cc1)NC(=O)[C@H](CC(=O)O)NC(=O)[C@H](CO)NC(=O)[C@@H](NC(=O)[C@H](Cc1ccccc1)NC(=O)[C@@H](NC(=O)CNC(=O)[C@H](CCC(=O)O)NC(=O)C(C)(C)NC(=O)[C@@H](N)Cc1ccc(O)cc1)[C@@H](C)O)[C@@H](C)CC)C(=O)N[C@@H](CCC(=O)O)C(=O)N[C@@H](CC(C)C)C(=O)N[C@@H](CC(=O)O)C(=O)N[C@@H](CCCCN)C(=O)N[C@@H](CCCCNC(=O)COCCOCCNC(=O)COCCOCCNC(=O)CC[C@H](NC(=O)CCCCCCCCCCCCCCCCCCC(=O)O)C(=O)O)C(=O)N[C@@H](C)C(=O)N[C@@H](C)C(=O)N[C@@H](CCC(N)=O)C(=O)N[C@@H](C)C(=O)N[C@@H](Cc1ccccc1)C(=O)N[C@H](C(=O)N[C@@H](CC(N)=O)C(=O)N[C@@H](Cc1c[nH]c2ccccc12)C(=O)N[C@@H](CC(C)C)C(=O)N[C@@H](CC(C)C)C(=O)N[C@@H](C)C(=O)NCC(=O)N1CCC[C@H]1C(=O)N[C@@H](CO)C(=O)N[C@@H](CO)C(=O)NCC(=O)N[C@@H](C)C(=O)N1CCC[C@H]1C(=O)N1CCC[C@H]1C(=O)N1CCC[C@H]1C(=O)N[C@@H](CO)C(N)=O)C(C)C` [Compound 29] (H-Y[Aib]EGTFISDYSIELDKK([AEEA-AEEA-γGlu-C20 diacid])AAQAFVNWLLAGPSSGAPPPS-NH2), for which the EC50 is 0.007 nM in test [1], 0.014 nM at human GIP R and more than 100 nM in test [2].

With `CC[C@H](C)[C@H](NC(=O)[C@H](CO)NC(=O)[C@H](Cc1ccc(O)cc1)NC(=O)[C@H](CC(=O)O)NC(=O)[C@H](CO)NC(=O)[C@@H](NC(=O)[C@H](Cc1ccccc1)NC(=O)[C@@H](NC(=O)CNC(=O)[C@H](CCC(=O)O)NC(=O)C(C)(C)NC(=O)[C@@H](N)Cc1ccc(O)cc1)[C@@H](C)O)[C@@H](C)CC)C(=O)N[C@@H](CCC(=O)O)C(=O)N[C@@H](CC(C)C)C(=O)N[C@@H](CC(=O)O)C(=O)N[C@@H](CCCCN)C(=O)N[C@@H](CCCCNC(=O)COCCOCCNC(=O)COCCOCCNC(=O)CC[C@H](NC(=O)CCCCCCCCCCCCCCCCCCC(=O)O)C(=O)O)C(=O)N[C@@H](C)C(=O)N[C@@H](C)C(=O)N[C@@H](CCC(N)=O)C(=O)N[C@@H](CC(=O)O)C(=O)N[C@@H](Cc1ccccc1)C(=O)N[C@H](C(=O)N[C@@H](CC(N)=O)C(=O)N[C@@H](Cc1c[nH]c2ccccc12)C(=O)N[C@@H](CC(C)C)C(=O)N[C@@H](CC(C)C)C(=O)N[C@@H](C)C(=O)N[C@@H](C)C(=O)NCC(=O)N1CCC[C@H]1C(=O)N[C@@H](CO)C(=O)N[C@@H](CO)C(=O)NCC(=O)N[C@@H](C)C(=O)N1CCC[C@H]1C(=O)N1CCC[C@H]1C(=O)N1CCC[C@H]1C(=O)N[C@@H](CO)C(N)=O)C(C)C` [Compound 30] (H-Y[Aib]EGTFISDYSIELDKK([AEEA-AEEA-γGlu-C20 diacid])AAQDFVNWLLAAGPSSGAPPPS-NH2), the results for the EC50 (in test [1]; at human GIP R; in test [2]) were 0.014 nM, 0.009 nM and more than 10 nM, respectively.

For the compound `CC[C@H](C)[C@H](NC(=O)[C@H](Cc1ccccc1)NC(=O)[C@H](CC(=O)O)NC(=O)[C@H](CCC(N)=O)NC(=O)[C@H](C)NC(=O)[C@H](C)NC(=O)[C@H](CCCCNC(=O)COCCOCCNC(=O)COCCOCCNC(=O)CC[C@H](NC(=O)CCCCCCCCCCCCCCCCCCC(=O)O)C(=O)O)NC(=O)[C@H](CCCCN)NC(=O)[C@H](CC(=O)O)NC(=O)[C@H](CC(C)C)NC(=O)[C@H](CCC(=O)O)NC(=O)[C@@H](NC(=O)[C@H](CO)NC(=O)[C@H](Cc1ccc(O)cc1)NC(=O)[C@H](CC(=O)O)NC(=O)[C@H](CO)NC(=O)[C@@H](NC(=O)[C@H](Cc1ccccc1)NC(=O)[C@@H](NC(=O)CNC(=O)[C@H](CCC(=O)O)NC(=O)C(C)(C)NC(=O)[C@@H](N)Cc1ccc(O)cc1)[C@@H](C)O)[C@@H](C)CC)[C@@H](C)CC)C(=O)N[C@@H](CC(N)=O)C(=O)N[C@@H](Cc1c[nH]c2ccccc12)C(=O)N[C@@H](CC(C)C)C(=O)N[C@@H](CC(C)C)C(=O)N[C@@H](C)C(=O)NCC(=O)N1CCC[C@H]1C(=O)N[C@@H](CO)C(=O)N[C@@H](CO)C(=O)NCC(=O)N[C@@H](C)C(=O)N1CCC[C@H]1C(=O)N1CCC[C@H]1C(=O)N1CCC[C@H]1C(=O)N[C@@H](CO)C(N)=O` [Compound 31] (H-Y[Aib]EGTFISDYSIELDKK([AEEA-AEEA-γGlu-C20 diacid])AAQDFINWLLAGPSSGAPPPS-NH2), the EC50 in test [1] is 0.009 nM; at human GIP R it was 0.012 nM; in test [2], more than 100 nM.

Regarding `CC[C@H](C)[C@H](NC(=O)[C@H](Cc1ccccc1)NC(=O)[C@H](CC(=O)O)NC(=O)[C@H](CCC(N)=O)NC(=O)[C@H](C)NC(=O)[C@H](C)NC(=O)[C@H](CCCCNC(=O)COCCOCCNC(=O)COCCOCCNC(=O)CC[C@H](NC(=O)CCCCCCCCCCCCCCCCCCC(=O)O)C(=O)O)NC(=O)[C@H](CCCCN)NC(=O)[C@H](CC(=O)O)NC(=O)[C@H](CC(C)C)NC(=O)[C@H](CCC(=O)O)NC(=O)[C@@H](NC(=O)[C@H](CO)NC(=O)[C@H](Cc1ccc(O)cc1)NC(=O)[C@H](CC(=O)O)NC(=O)[C@H](CO)NC(=O)[C@@H](NC(=O)[C@H](Cc1ccccc1)NC(=O)[C@@H](NC(=O)CNC(=O)[C@H](CCC(=O)O)NC(=O)C(C)(C)NC(=O)[C@@H](N)Cc1ccc(O)cc1)[C@@H](C)O)[C@@H](C)CC)[C@@H](C)CC)C(=O)N[C@@H](CCC(=O)O)C(=O)N[C@@H](Cc1c[nH]c2ccccc12)C(=O)N[C@@H](CC(C)C)C(=O)N[C@@H](CC(C)C)C(=O)N[C@@H](C)C(=O)NCC(=O)N1CCC[C@H]1C(=O)N[C@@H](CO)C(=O)N[C@@H](CO)C(=O)NCC(=O)N[C@@H](C)C(=O)N1CCC[C@H]1C(=O)N1CCC[C@H]1C(=O)N1CCC[C@H]1C(=O)N[C@@H](CO)C(N)=O` [Compound 32] (H-Y[Aib]EGTFISDYSIELDKK([AEEA-AEEA-γGlu-C20 diacid])AAQDFIEWLLAGPSSGAPPPS-NH2), the figures for the EC50 (in test [1]; at human GIP R; in test [2]) were 0.012 nM, 0.02 nM and more than 100 nM, respectively.

Take `CC[C@H](C)[C@H](NC(=O)[C@H](CCCCNC(=O)COCCOCCNC(=O)COCCOCCNC(=O)CC[C@H](NC(=O)CCCCCCCCCCCCCCCCCCC(=O)O)C(=O)O)NC(=O)[C@H](CC(=O)O)NC(=O)[C@H](CC(C)C)NC(=O)[C@H](CCC(=O)O)NC(=O)[C@@H](NC(=O)[C@H](CO)NC(=O)[C@H](Cc1ccc(O)cc1)NC(=O)[C@H](CC(=O)O)NC(=O)[C@H](CO)NC(=O)[C@@H](NC(=O)[C@H](Cc1ccccc1)NC(=O)[C@@H](NC(=O)CNC(=O)[C@H](CCC(=O)O)NC(=O)C(C)(C)NC(=O)[C@@H](N)Cc1ccc(O)cc1)[C@@H](C)O)[C@@H](C)CC)[C@@H](C)CC)C(=O)N[C@@H](C)C(=O)N[C@@H](CCC(N)=O)C(=O)N[C@@H](CCCNC(=N)N)C(=O)N[C@@H](C)C(=O)N[C@@H](Cc1ccccc1)C(=O)N[C@H](C(=O)N[C@@H](CCC(=O)O)C(=O)N[C@@H](Cc1c[nH]c2ccccc12)C(=O)N[C@@H](CC(C)C)C(=O)N[C@@H](CC(C)C)C(=O)N[C@@H](C)C(=O)N[C@@H](CCC(N)=O)C(=O)NCC(=O)N1CCC[C@H]1C(=O)N[C@@H](CO)C(=O)N[C@@H](CO)C(=O)NCC(=O)N[C@@H](C)C(=O)N1CCC[C@H]1C(=O)N1CCC[C@H]1C(=O)N1CCC[C@H]1C(=O)N[C@@H](CO)C(N)=O)[C@@H](C)CC` [Compound 34] (H-Y[Aib]EGTFISDYSIELDK([AEEA-AEEA-γGlu-C20 diacid])IAQRAFIEWLLAQGPSSGAPPPS-NH2): the EC50 in test [1] was 0.017 nM; at human GIP R, 0.011 nM; in test [2], more than 10 nM.
